According to patent US11173151B2, “Substituted triazole derivatives and uses thereof” (BAYER AKTIENGESELLSCHAFT, priority 2017, dated 2021):

Key:
human V2 receptor = target: T1, human V2 receptor (Homo sapiens, UniProt P30518); assay: Cellular in vitro assay for determining vasopressin receptor activity, V2 receptor cell line (CHO, CRE-luciferase); type: cell-based; settings: CHO cell line transfected with human V2 receptor; [Arg8]-vasopressin at EC50 concentration, 3 hours; read-out: IC50 hV2
T1 construct: expressed in transfected cells; host or cells: CHO K1 (ATCC) expressing firefly luciferase under a CRE-responsive promoter
T1 sequence (P30518 whole entry): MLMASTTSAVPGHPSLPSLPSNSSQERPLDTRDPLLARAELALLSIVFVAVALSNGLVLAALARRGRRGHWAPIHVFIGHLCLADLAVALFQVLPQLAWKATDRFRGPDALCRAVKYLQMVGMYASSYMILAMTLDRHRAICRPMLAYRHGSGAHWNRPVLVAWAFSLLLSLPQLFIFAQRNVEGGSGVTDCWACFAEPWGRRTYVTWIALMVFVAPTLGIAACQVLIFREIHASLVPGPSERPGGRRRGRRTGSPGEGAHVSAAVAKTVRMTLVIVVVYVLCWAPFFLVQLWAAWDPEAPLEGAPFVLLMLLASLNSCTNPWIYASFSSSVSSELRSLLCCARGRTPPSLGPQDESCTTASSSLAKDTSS

human V1a receptor = target: T2, human V1a receptor (Homo sapiens, UniProt P37288); assay: Cellular in vitro assay for determining vasopressin receptor activity, V1a receptor cell line (CHO, aequorin luminescence); type: cell-based; settings: for IC50: CHO cell line transfected with human V1a receptor, [Arg]-vasopressin at EC50 concentration, read-out: IC50 hV1a; for ratio IC50 hV2/hV1a: selectivity ratio IC50 hV2 / IC50 hV1a
T2 construct: expressed in transfected cells; host or cells: CHO K1 (ATCC), also stably transfected with a modified aequorin
T2 sequence (P37288 whole entry): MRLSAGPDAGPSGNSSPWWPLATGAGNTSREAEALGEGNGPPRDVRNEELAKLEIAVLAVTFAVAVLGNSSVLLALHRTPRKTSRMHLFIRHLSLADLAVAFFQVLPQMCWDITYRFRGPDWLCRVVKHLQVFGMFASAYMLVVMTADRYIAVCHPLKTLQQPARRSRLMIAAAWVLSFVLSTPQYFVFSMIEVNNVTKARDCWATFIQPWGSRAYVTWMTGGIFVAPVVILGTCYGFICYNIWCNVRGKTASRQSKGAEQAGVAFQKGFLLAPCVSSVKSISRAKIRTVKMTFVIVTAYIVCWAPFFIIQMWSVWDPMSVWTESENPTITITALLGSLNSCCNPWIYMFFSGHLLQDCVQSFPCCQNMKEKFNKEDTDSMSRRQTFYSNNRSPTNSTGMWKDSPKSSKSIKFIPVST
Procedure, shortened: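 Antagonism is measured in stable CHO K1 transfectants coexpressing the Gαq-coupled receptor and a calcium-sensitive aequorin photoprotein. Agonist challenge uses [Arg]-vasopressin at EC50 after a 10-minute compound exposure; IC50 values come from the luminescence signal.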

SMILES	IC50 (human V2 receptor)	IC50 (human V1a receptor)	ratio IC50 hV2/hV1a (human V1a receptor)
CCn1ccc(C(=O)Nc2ncccc2-n2cnc(Cn3nc(-c4ccc(Cl)cc4)n(C[C@H](O)C(F)(F)F)c3=O)n2)n1 [Example 110]	0.525 µM	0.0063 µM	83.3
CCn1nccc1C(=O)Nc1ncccc1-n1cnc(Cn2nc(-c3ccc(Cl)cc3)n(C[C@H](O)C(F)(F)F)c2=O)n1 [Example 111]	1.3 µM	0.0047 µM	276.6
CCn1cc(C(=O)Nc2ncccc2-n2cnc(Cn3nc(-c4ccc(Cl)cc4)n(C[C@H](O)C(F)(F)F)c3=O)n2)cn1 [Example 112]	66 µM	0.17 µM	388.2
CC1(C(=O)Nc2ncccc2-n2cnc(Cn3nc(-c4ccc(Cl)cc4)n(C[C@H](O)C(F)(F)F)c3=O)n2)CCCCC1 [Example 113]	0.835 µM	0.091 µM	9.2
CC1CC1C(=O)Nc1ncccc1-n1cnc(Cn2nc(-c3ccc(Cl)cc3)n(C[C@H](O)C(F)(F)F)c2=O)n1 (stereo partly drawn) [Example 114]	0.24 µM	0.019 µM	12.6
O=C(Nc1ncccc1-n1cnc(Cn2nc(-c3ccc(Cl)cc3)n(C[C@H](O)C(F)(F)F)c2=O)n1)C1CCC1 [Example 115]	0.49 µM	0.031 µM	15.8
O=C(Nc1ncccc1-n1cnc(Cn2nc(-c3ccc(Cl)cc3)n(C[C@H](O)C(F)(F)F)c2=O)n1)c1ccccc1F [Example 116]	1.15 µM	0.078 µM	14.7
CC(C)(C)C(=O)Nc1ncccc1-n1cnc(Cn2nc(-c3ccc(Cl)cc3)n(C[C@H](O)C(F)(F)F)c2=O)n1 [Example 117]	1.05 µM	0.0655 µM	16.0
CC1(C(=O)Nc2ncccc2-n2cnc(Cn3nc(-c4ccc(Cl)cc4)n(C[C@H](O)C(F)(F)F)c3=O)n2)COC1 [Example 118]	1.15 µM	0.14 µM	8.2
CC[C@H](C)C(=O)Nc1ncccc1-n1cnc(Cn2nc(-c3ccc(Cl)cc3)n(C[C@H](O)C(F)(F)F)c2=O)n1 [Example 119]	0.27 µM	0.035 µM	7.7
CCC(C)(O)C(=O)Nc1ncccc1-n1cnc(Cn2nc(-c3ccc(Cl)cc3)n(C[C@H](O)C(F)(F)F)c2=O)n1 (stereo partly drawn) [Example 120]	0.425 µM	0.027 µM	15.7
O=C(Nc1ncccc1-n1cnc(Cn2nc(-c3ccc(Cl)cc3)n(C[C@H](O)C(F)(F)F)c2=O)n1)c1ccc(F)cc1 [Example 121]	1.5 µM	0.052 µM	28.8
Cc1ccccc1C(=O)Nc1ncccc1-n1cnc(Cn2nc(-c3ccc(Cl)cc3)n(C[C@H](O)C(F)(F)F)c2=O)n1 [Example 122]	1.65 µM	0.12 µM	13.8
Cc1ccc(C(=O)Nc2ncccc2-n2cnc(Cn3nc(-c4ccc(Cl)cc4)n(C[C@H](O)C(F)(F)F)c3=O)n2)cc1 [Example 123]	2.3 µM	0.105 µM	21.9
Cc1n[nH]c(C)c1C(=O)Nc1ncccc1-n1cnc(Cn2nc(-c3ccc(Cl)cc3)n(C[C@H](O)C(F)(F)F)c2=O)n1 [Example 124]	3.8 µM	0.315 µM	12.1
NC(=O)C1(C(=O)Nc2ncccc2-n2cnc(Cn3nc(-c4ccc(Cl)cc4)n(C[C@H](O)C(F)(F)F)c3=O)n2)CC1 [Example 125]	0.36 µM	0.0295 µM	12.2
CC[C@@H](C)C(=O)Nc1ncccc1-n1cnc(Cn2nc(-c3ccc(Cl)cc3)n(C[C@H](O)C(F)(F)F)c2=O)n1 [Example 126]	0.25 µM	0.036 µM	6.9
Cc1ccn(CC(=O)Nc2ncccc2-n2cnc(Cn3nc(-c4ccc(Cl)cc4)n(C[C@H](O)C(F)(F)F)c3=O)n2)n1 [Example 127]	1.05 µM	0.16 µM	6.6
Cc1nnsc1C(=O)Nc1ncccc1-n1cnc(Cn2nc(-c3ccc(Cl)cc3)n(C[C@H](O)C(F)(F)F)c2=O)n1 [Example 128]	1.5 µM	0.0135 µM	111.1
Cc1cc(C(=O)Nc2ncccc2-n2cnc(Cn3nc(-c4ccc(Cl)cc4)n(C[C@H](O)C(F)(F)F)c3=O)n2)nn1C [Example 129]	3.65 µM	0.67 µM	5.4
Cc1[nH]ncc1C(=O)Nc1ncccc1-n1cnc(Cn2nc(-c3ccc(Cl)cc3)n(C[C@H](O)C(F)(F)F)c2=O)n1 [Example 130]	4.5 µM	0.189 µM	23.9
CC(C(=O)Nc1ncccc1-n1cnc(Cn2nc(-c3ccc(Cl)cc3)n(C[C@H](O)C(F)(F)F)c2=O)n1)n1ccnc1 (stereo partly drawn) [Example 131]	1.95 µM	0.0125 µM	156.0

SMILES	IC50 (human V2 receptor)	IC50 (human V1a receptor)	ratio IC50 hV2/hV1a (human V1a receptor)
Cn1cncc1C(=O)Nc1ncccc1-n1cnc(Cn2nc(-c3ccc(Cl)cc3)n(C[C@H](O)C(F)(F)F)c2=O)n1 [Example 132]	5.15 µM	0.0455 µM	113.2
Cc1nonc1C(=O)Nc1ncccc1-n1cnc(Cn2nc(-c3ccc(Cl)cc3)n(C[C@H](O)C(F)(F)F)c2=O)n1 [Example 133]	1.45 µM	0.0049 µM	295.9
O=C(Nc1ncccc1-n1cnc(Cn2nc(-c3ccc(Cl)cc3)n(C[C@H](O)C(F)(F)F)c2=O)n1)C1CCOCC1 [Example 134]	1.25 µM	0.117 µM	10.7
Cc1cc(CC(=O)Nc2ncccc2-n2cnc(Cn3nc(-c4ccc(Cl)cc4)n(C[C@H](O)C(F)(F)F)c3=O)n2)on1 [Example 135]	0.93 µM	0.0665 µM	14.0
O=C(CC1CCC1)Nc1ncccc1-n1cnc(Cn2nc(-c3ccc(Cl)cc3)n(C[C@H](O)C(F)(F)F)c2=O)n1 [Example 136]	0.34 µM	0.0235 µM	14.5
COC(C)(C)C(=O)Nc1ncccc1-n1cnc(Cn2nc(-c3ccc(Cl)cc3)n(C[C@H](O)C(F)(F)F)c2=O)n1 [Example 137]	1.35 µM	0.146 µM	9.2
Cc1nonc1CC(=O)Nc1ncccc1-n1cnc(Cn2nc(-c3ccc(Cl)cc3)n(C[C@H](O)C(F)(F)F)c2=O)n1 [Example 138]	2.35 µM	0.0385 µM	61.0
CCc1cc(C(=O)Nc2ncccc2-n2cnc(Cn3nc(-c4ccc(Cl)cc4)n(C[C@H](O)C(F)(F)F)c3=O)n2)no1 [Example 139]	0.465 µM	0.0205 µM	22.7
CCc1cc(C(=O)Nc2ncccc2-n2cnc(Cn3nc(-c4ccc(Cl)cc4)n(C[C@H](O)C(F)(F)F)c3=O)n2)on1 [Example 140]	1.01 µM	0.0335 µM	30.0
O=C(CC1CCCO1)Nc1ncccc1-n1cnc(Cn2nc(-c3ccc(Cl)cc3)n(C[C@H](O)C(F)(F)F)c2=O)n1 (stereo partly drawn) [Example 141]	1.06 µM	0.032 µM	33.3
CC1=NOC(C)(C(=O)Nc2ncccc2-n2cnc(Cn3nc(-c4ccc(Cl)cc4)n(C[C@H](O)C(F)(F)F)c3=O)n2)C1 (stereo partly drawn) [Example 142]	2.4 µM	0.1 µM	24.0
O=C(Nc1ncccc1-n1cnc(Cn2nc(-c3ccc(Cl)cc3)n(C[C@H](O)C(F)(F)F)c2=O)n1)c1ccncn1 [Example 143]	1.12 µM	0.015 µM	74.7
C=CC(C)C(=O)Nc1ncccc1-n1cnc(Cn2nc(-c3ccc(Cl)cc3)n(C[C@H](O)C(F)(F)F)c2=O)n1 (stereo partly drawn) [Example 144]	1.9 µM	0.185 µM	10.3
CC(C)(O)C(=O)Nc1ncccc1-n1cnc(Cn2nc(-c3ccc(Cl)cc3)n(C[C@H](O)C(F)(F)F)c2=O)n1 [Example 145]	1.01 µM	0.125 µM	8.1
CCCC(=O)Nc1ncccc1-n1cnc(Cn2nc(-c3ccc(Cl)cc3)n(C[C@H](O)C(F)(F)F)c2=O)n1 [Example 146]	0.555 µM	0.056 µM	9.9
CCC(=O)Nc1ncccc1-n1cnc(Cn2nc(-c3ccc(Cl)cc3)n(C[C@H](O)C(F)(F)F)c2=O)n1 [Example 147]	0.94 µM	0.305 µM	3.1
CC(C)CC(=O)Nc1ncccc1-n1cnc(Cn2nc(-c3ccc(Cl)cc3)n(C[C@H](O)C(F)(F)F)c2=O)n1 [Example 148]	0.255 µM	0.019 µM	13.4
CSCC(=O)Nc1ncccc1-n1cnc(Cn2nc(-c3ccc(Cl)cc3)n(C[C@H](O)C(F)(F)F)c2=O)n1 [Example 149]	1.9 µM	0.0124 µM	153.2
O=C(CC1CCCC1)Nc1ncccc1-n1cnc(Cn2nc(-c3ccc(Cl)cc3)n(C[C@H](O)C(F)(F)F)c2=O)n1 [Example 150]	2.4 µM	0.0545 µM	44.0
CC(C)C(=O)Nc1ncccc1-n1cnc(Cn2nc(-c3ccc(Cl)cc3)n(C[C@H](O)C(F)(F)F)c2=O)n1 [Example 151]	0.665 µM	0.098 µM	6.8
C=CCC(=O)Nc1ncccc1-n1cnc(Cn2nc(-c3ccc(Cl)cc3)n(C[C@H](O)C(F)(F)F)c2=O)n1 [Example 152]	1.35 µM	0.065 µM	20.8
N#Cc1cccc(C(=O)Nc2ncccc2-n2cnc(Cn3nc(-c4ccc(Cl)cc4)n(C[C@H](O)C(F)(F)F)c3=O)n2)c1 [Example 153]	17.3 µM	0.41 µM	42.2
